Measured values: patent publication US20260263473A1 (priority 2023, published 2026)

Test: Blood levels of the actives after the three-compartment transdermal patch in a COVID patient
Type: in vivo, human
Settings: for time at which blood levels rose to a peak: transdermal patch (48 mg ivermectin, 300 mg doxycycline, 50 mg zinc chelate; gelling agent and water), adhered to left side of chest for 3 days
Experimental: A patient with diabetes and hypertension had acquired COVID as proven by PCR. […] They were treated with a transdermal patch containing higher dose of active antiviral drugs including 48 mg of ivermectin, 300 mg of doxycycline, and 50 mg of zinc chelate. The transdermal patch had three separate compartments, each compartment containing one of ivermectin, doxycycline and zinc chelate. Each active ingredient was formulated with a gelling agent and water. The patch remained adhered to the left side of the chest for 3 days. Blood levels of each of the ivermectin, doxycycline and zinc chelate rose to a peak at 10 hrs, The patient's cough continued but slowly resolved and they were not breathless. […] The patient oxygen saturation improved within 2 days with oximetry rising to 96%.

[1] = orally treated patients (comparison)
[2] = transdermal patch, adhered to chest for 3 days, one patient

In the case of `C[C@H]1c2cccc(O)c2C(=O)C2=C(O)[C@]3(O)C(=O)C(C(N)=O)=C(O)[C@@H](N(C)C)[C@@H]3[C@@H](O)[C@@H]21` [doxycycline], the “persistence of blood levels (area under the curve)” value (“persistence of blood levels” for short) [1] was 48 h, the “time at which blood levels rose to a peak” value (one patient) was 10 h and the “area under the curve compared with single oral medications” value [2] was “greater than that of single oral medications”. The “persistence of blood levels” value [2] was 140 h.

For ivermectin, the “persistence of blood levels” value [1] was 48 h, the “time at which blood levels rose to a peak” value (one patient) was 10 h and the “area under the curve compared with single oral medications” value [2] was “greater than that of single oral medications”. The “persistence of blood levels” value [2] was 140 h.
